Measurements reported in patent US9409884B2 (Rigel Pharmaceuticals, Inc., priority 2012, dated 2016).

These molecules were tested against AMPK (assay: AMPK activation, enzyme-linked immunosorbent assay). Details: Table 13, compounds of Table 6.
Type: biochemical
Outline: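 AMPK activation by test compounds was measured by enzyme-linked immunosorbent assay.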

Row | EC50 [nM] | SMILES
1 | 100 to 1000 | N#Cc1ccc(CN2CCC(NC(=O)c3cc4cc(NC(=O)c5ccc(Oc6ccc(C#N)cn6)cc5)ccc4o3)CC2)cc1 [Compound 6-71, N-(1-(4-cyanobenzyl)piperidin-4-yl)-5-(4-(5-cyanopyridin-2-yloxy)benzamido)benzofuran-2-carboxamide]
2 | 1000 to 10000 | N#Cc1ccc(CN2CCC(NC(=O)c3cc4cc(NC(=O)c5cnn(Cc6ccc(C(F)(F)F)cc6)c5)ccc4o3)CC2)cc1 [Compound 6-72, N-(2-(1-(4-cyanobenzyl)piperidin-4-ylcarbamoyl)benzofuran-5-yl)-1-(4-(trifluoromethyl)benzyl)-1H-pyrazole-4-carboxamide]
3 | 1000 to 10000 | N#Cc1ccc(CN2CCC(NC(=O)c3cc4cc(NC(=O)c5cnn(Cc6ccc(C#N)cc6)c5)ccc4o3)CC2)cc1 [Compound 6-73, 1-(4-cyanobenzyl)-N-(2-(1-(4-cyanobenzyl)piperidin-4-ylcarbamoyl)benzofuran-5-yl)-1H-pyrazole-4-carboxamide]
4 | 100 to 1000 | N#Cc1ccc(CN2CCC(NC(=O)c3cc4cc(NC(=O)C5CN(c6ccc(C#N)cc6)C5)ccc4o3)CC2)cc1 [Compound 6-74, N-(2-(1-(4-cyanobenzyl)piperidin-4-ylcarbamoyl)benzofuran-5-yl)-1-(4-cyanophenyl)azetidine-3-carboxamide]
5 | < 100 | N#Cc1ccc(CN2CCC(NC(=O)c3cc4cc(NC(=O)C5CCN(c6ccc(C#N)cc6)CC5)ccc4o3)CC2)cc1 [Compound 6-76, N-(2-(1-(4-cyanobenzyl)piperidin-4-ylcarbamoyl)benzofuran-5-yl)-1-(4-cyanophenyl)piperidine-4-carboxamide]
6 | < 100 | N#Cc1ccc(CN2CCC(NC(=O)c3cc4cc(C(=O)N5CCN(Cc6cnn(-c7ccc(C#N)cc7)c6)CC5)ccc4o3)CC2)cc1 [Compound 6-77, N-(1-(4-cyanobenzyl)piperidin-4-yl)-5-(4-((1-(4-cyanophenyl)-1H-pyrazol-4-yl)methyl)piperazine-1-carbonyl)benzofuran-2-carboxamide]
7 | < 100 | N#Cc1ccc(CN2CCC(NC(=O)c3cc4cc(C(=O)N5CCN(Cc6ccc(-n7cccn7)cc6)CC5)ccc4o3)CC2)cc1 [Compound 6-79, 5-(4-(4-(1H-pyrazol-1-yl)benzyl)piperazine-1-carbonyl)-N-(1-(4-cyanobenzyl)piperidin-4-yl)benzofuran-2-carboxamide]
8 | < 100 | N#Cc1ccc(CN2CCC(NC(=O)c3cc4cc(C(=O)N5CCN(Cc6ccc(N7CCCC7)cc6)CC5)ccc4o3)CC2)cc1 [Compound 6-80, N-(1-(4-cyanobenzyl)piperidin-4-yl)-5-(4-(4-(pyrrolidin-1-yl)benzyl)piperazine-1-carbonyl)benzofuran-2-carboxamide]
9 | < 100 | N#Cc1ccc(CN2CCC(NC(=O)c3cc4cc(C(=O)N5CCN(Cc6ccc(OC(F)(F)F)cc6)CC5)ccc4o3)CC2)cc1 [Compound 6-81, N-(1-(4-cyanobenzyl)piperidin-4-yl)-5-(4-(4-(trifluoromethoxy)benzyl)piperazine-1-carbonyl) benzofuran-2-carboxamide]
10 | < 100 | N#Cc1ccc(CN2CCC(NC(=O)c3cc4cc(C(=O)N5CCN(Cc6ccc(-c7ccccn7)cc6)CC5)ccc4o3)CC2)cc1 [Compound 6-82, N-(1-(4-cyanobenzyl)piperidin-4-yl)-5-(4-(4-(pyridin-2-yl)benzyl)piperazine-1-carbonyl)benzofuran-2-carboxamide]
11 | 1000 to 10000 | N#Cc1ccc(CN2CCC(NC(=O)c3cc4cc(NC(=O)C5CCN(c6ccc(C(F)(F)F)cc6)CC5)ccc4o3)CC2)cc1 [Compound 6-83, N-(2-(1-(4-cyanobenzyl)piperidin-4-ylcarbamoyl)benzofuran-5-yl)-1-(4-(trifluoromethyl)phenyl) piperidine-4-carboxamide]
12 | < 100 | CS(=O)(=O)c1ccc(N2CCC(C(=O)Nc3ccc4oc(C(=O)NC5CCN(Cc6ccc(C#N)cc6)CC5)cc4c3)CC2)cc1 [Compound 6-84, N-(2-(1-(4-cyanobenzyl)piperidin-4-ylcarbamoyl)benzofuran-5-yl)-1-(4-(methylsulfonyl)phenyl) piperidine-4-carboxamide]
13 | 1000 to 10000 | CS(=O)(=O)c1ccc(C(=O)Nc2ccc3oc(C(=O)NC4CCN(Cc5ccc(C#N)cc5)CC4)cc3c2)cc1 [Compound 6-85, N-(1-(4-cyanobenzyl)piperidin-4-yl)-5-(4-(methylsulfonyl)benzamido) benzofuran-2-carboxamide]
14 | < 100 | N#Cc1ccc(CN2CCC(NC(=O)c3cc4cc(C(=O)N5CCN(c6ccc(F)cc6)CC5)ccc4o3)CC2)cc1 [Compound 6-86, N-(1-(4-cyanobenzyl)piperidin-4-yl)-5-(4-(4-fluorophenyl)piperazine-1-carbonyl)benzofuran-2-carboxamide]
15 | 100 to 1000 | CS(=O)(=O)c1ccc(N2CCN(C(=O)c3ccc4oc(C(=O)NC5CCN(Cc6ccc(C#N)cc6)CC5)cc4c3)CC2)cc1 [Compound 6-87, N-(1-(4-cyanobenzyl)piperidin-4-yl)-5-(4-(4-(methylsulfonyl)phenyl)piperazine-1-carbonyl) benzofuran-2-carboxamide]
16 | < 100 | N#Cc1ccc(CN2CCC(NC(=O)c3cc4cc(C(=O)NC5CCN(c6ccc(C#N)cc6)CC5)ccc4o3)CC2)cc1 [Compound 6-90, N2-(1-(4-cyanobenzyl)piperidin-4-yl)-N5-(1-(4-cyanophenyl)piperidin-4-yl)benzofuran-2,5-dicarboxamide]
17 | 1000 to 10000 | N#Cc1ccc(CN2CCC(NC(=O)c3cc4cc(C(=O)NC5CCN(Cc6ccn(-c7ccc(C#N)cc7)n6)CC5)ccc4o3)CC2)cc1 [Compound 6-91, N2-(1-(4-cyanobenzyl)piperidin-4-yl)-N5-(1-((1-(4-cyanophenyl)-1H-pyrazol-3-yl)methyl)piperidin-4-yl)benzofuran-2,5-dicarboxamide]
18 | 100 to 1000 | N#Cc1ccc(CN2CCC(NC(=O)c3cc4cc(C(=O)NC5CCN(Cc6ccc(-n7cccn7)cc6)CC5)ccc4o3)CC2)cc1 [Compound 6-92, N5-(1-(4-(lH-pyrazol-1-yl)benzyl)piperidin-4-yl)-N2-(1-(4-cyanobenzyl)piperidin-4-yl)benzofuran-2,5-dicarboxamide]
19 | 100 to 1000 | N#Cc1ccc(CN2CCC(NC(=O)c3cc4cc(C(=O)NC5CCN(Cc6ccc(OC(F)(F)F)cc6)CC5)ccc4o3)CC2)cc1 [Compound 6-93, N2-(1-(4-cyanobcnzyl)piperidin-4-yl)-N5-(1-(4-(trifluoromethoxy)benzyl)piperidin-4-yl)benzofuran-2,5-dicarboxamide]
20 | 100 to 1000 | COc1ccc(CN2CCC(NC(=O)c3cc4cc(C(=O)N5CCN(Cc6ccc(S(C)(=O)=O)cc6)CC5)ccc4o3)CC2)cc1 [Compound 6-94, N-(1-(4-methoxybenzyl)piperidin-4-yl)-5-(4-(4-(methylsulfonyl)benzyl)piperazine-1-carbonyl) benzofuran-2-carboxamide]
21 | 100 to 1000 | CS(=O)(=O)c1ccc(CN2CCN(C(=O)c3ccc4oc(C(=O)NC5CCN(Cc6ccc(OC(F)(F)F)cc6)CC5)cc4c3)CC2)cc1 [Compound 6-95, 5-(4-(4-(methylsulfonyl)benzyl)piperazine-1-carbonyl)-N-(1-(4-(trifluoromethoxy)benzyl)piperidin-4-yl)benzofuran-2-carboxamide]
